Measured values as given in ChEMBL document CHEMBL1152343, “2-Arylbenzofuran Derivatives from Morus cathayana” (J Nat Prod, 2009).
≈ marks a conversion by molar mass, not a printed value.

How the values were obtained:
Type in all cases: functional, cell-based
[1] = system: A549; experiment: Cytotoxicity against human A549 […] by MTT assay
[2] = system: A2780; experiment: Cytotoxicity against human A2780 […] by MTT assay
[3] = system: BGC-823; experiment: Cytotoxicity against human BGC823 […] by MTT assay
[4] = system: HCT-8; experiment: Cytotoxicity against human HCT8 […] by MTT assay

Structure (SMILES): CC(C)=CCc1c(O)cc(O)cc1-c1cc2ccc(O)c(CC=C(C)C)c2o1 [CATHAFURAN B]
- IC50 [1]: 6.27 µg/mL (≈ 16.6 µM)
- IC50 [2]: 6.27 µg/mL (≈ 16.6 µM)
- IC50 [3]: 6.27 µg/mL (≈ 16.6 µM)
- IC50 [4]: 6.27 µg/mL (≈ 16.6 µM)

Structure (SMILES): CC(C)=CCc1c(O)cc2c(c1-c1cc3ccc(O)cc3o1)C=CC(C)(C)O2 [CATHAFURAN C]
- IC50 [2]: 7.61 µg/mL (≈ 20.2 µM)
- IC50 [4]: 7.33 µg/mL (≈ 19.5 µM)

Structure (SMILES): O=c1[nH]cc(F)c(=O)[nH]1 [FLUOROURACIL]
- IC50 [1]: 0.2 µg/mL (≈ 1.54 µM)
- IC50 [2]: 0.2 µg/mL (≈ 1.54 µM)
- IC50 [3]: 0.2 µg/mL (≈ 1.54 µM)
- IC50 [4]: 0.2 µg/mL (≈ 1.54 µM)
